Measured values from ChEMBL document CHEMBL1201862, “PubChem BioAssay data set” (2004).
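Briefly, cells in 96-well plates were exposed to five compound concentrations for 48 h, and endpoints were estimated by linear interpolation. GI50 = concentration required for 50% inhibition of growth.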 The source made the active and inactive calls. Cut-off read from the data, not from the text of the source: active = GI50 up to about 1.1 µM and inactive = higher.

Legend:
Assay in all cases: NCI-60 cell line screen, 48 h
786-0 = tested on: 786-0
A549 = tested on: A549
DU-145 = tested on: DU-145
HL-60 = tested on: HL-60
K562 = tested on: K562
KM12 = tested on: KM12
MCF7 = tested on: MCF7
MDA-N = tested on: MDA-N
NCI-H226 = tested on: NCI-H226
NCI-H522 = tested on: NCI-H522
OVCAR-4 = tested on: OVCAR-4
PC-3 = tested on: PC-3
SF-268 = tested on: SF-268
SF-295 = tested on: SF-295
SK-MEL-28 = tested on: SK-MEL-28
SK-OV-3 = tested on: SK-OV-3
SNB-19 = tested on: SNB-19
T47D = tested on: T47D
UACC-62 = tested on: UACC-62

Row | SMILES | GI50 (786-0) | GI50 (A549) | GI50 (DU-145) | GI50 (HL-60) | GI50 (K562) | GI50 (KM12) | GI50 (MCF7) | GI50 (MDA-N) | GI50 (NCI-H226) | GI50 (NCI-H522) | GI50 (OVCAR-4) | GI50 (PC-3) | GI50 (SF-268) | GI50 (SF-295) | GI50 (SK-MEL-28) | GI50 (SK-OV-3) | GI50 (SNB-19) | GI50 (T47D) | GI50 (UACC-62)
1 | CN(C)Cc1cc(C(F)(F)F)ccc1C(O)(c1ccccc1)c1ccccc1 | 14.2 µM (inactive) | 15 µM (inactive) | 26.7 µM (inactive) | 7.76 µM (inactive) | 6.9 µM (inactive) | 16.9 µM (inactive) | 14.3 µM (inactive) | 14.4 µM (inactive) | 15.1 µM (inactive) | 15.6 µM (inactive) | 16.4 µM (inactive) | 14.1 µM (inactive) | 15.3 µM (inactive) | 17.9 µM (inactive) | 14.9 µM (inactive) | 17.4 µM (inactive) | 16.7 µM (inactive) | 18.2 µM (inactive) | 13.2 µM (inactive)
2 | CN1CN(c2ccccc2)C2(CCN(CCCSc3ccccc3NC(=O)/C=C/c3ccccc3)CC2)C1=O | 7.03 µM (inactive) | 6.93 µM (inactive) | 3.82 µM (inactive) | 3.95 µM (inactive) | 3.85 µM (inactive) | 4.59 µM (inactive) | 13 µM (inactive) | 2.57 µM (inactive) | 2.24 µM (inactive) | 17.3 µM (inactive) | 3.59 µM (inactive) | 5.45 µM (inactive) | 4.21 µM (inactive) | 3.3 µM (inactive) | 2.11 µM (inactive) | 5.92 µM (inactive) | 5.27 µM (inactive) | 4.01 µM (inactive) | 2.71 µM (inactive)
3 | CC(=O)N(C(C)=O)n1c(Cc2ccc(Cl)cc2)nn(C(C)=O)c1=O | > 100 µM (inactive) | > 100 µM (inactive) | > 100 µM (inactive) | > 100 µM (inactive) | > 100 µM (inactive) | > 100 µM (inactive) | > 100 µM (inactive) | > 100 µM (inactive) | > 100 µM (inactive) | > 100 µM (inactive) | > 100 µM (inactive) | > 100 µM (inactive) | > 100 µM (inactive) | > 100 µM (inactive) | > 100 µM (inactive) | > 100 µM (inactive) | > 100 µM (inactive) | > 100 µM (inactive) | > 100 µM (inactive)
4 | COc1ccc(SCc2cc(OC)c(OC)c(OC)c2)cc1OC | > 100 µM (inactive) | 43.8 µM (inactive) | > 100 µM (inactive) | 30.8 µM (inactive) | 42.9 µM (inactive) | 37.5 µM (inactive) | 28.8 µM (inactive) | 24.5 µM (inactive) | 51.6 µM (inactive) | 53.6 µM (inactive) | 22 µM (inactive) | 31.3 µM (inactive) | > 100 µM (inactive) | 45.7 µM (inactive) | > 73.8 µM (inactive) | 50.1 µM (inactive) | > 81.1 µM (inactive) | 13.4 µM (inactive) | 38 µM (inactive)
5 | Cc1ccc(S(=O)(=O)N/N=C2\CCCCCCCCCCC2CN(C)C)cc1 (centres undefined) | 15.9 µM (inactive) | 19.3 µM (inactive) | 18.5 µM (inactive) | 19.4 µM (inactive) | 13.2 µM (inactive) | 17.9 µM (inactive) | 17 µM (inactive) | 18.5 µM (inactive) | 15.7 µM (inactive) | 14.3 µM (inactive) | 18 µM (inactive) | 15.3 µM (inactive) | 21.3 µM (inactive) | 16.8 µM (inactive) | 14.8 µM (inactive) | 20 µM (inactive) | 15.5 µM (inactive) | 13.4 µM (inactive) | 18.2 µM (inactive)
6 | CCOC(=O)C(=CNC(=S)Nc1c(CC)cccc1CC)C(=O)OCC | > 100 µM (inactive) | > 100 µM (inactive) | > 100 µM (inactive) | > 100 µM (inactive) | > 100 µM (inactive) | > 100 µM (inactive) | > 100 µM (inactive) | > 100 µM (inactive) | > 100 µM (inactive) | > 100 µM (inactive) | > 100 µM (inactive) | > 100 µM (inactive) | > 100 µM (inactive) | > 100 µM (inactive) | > 100 µM (inactive) | > 100 µM (inactive) | > 100 µM (inactive) | > 100 µM (inactive) | > 100 µM (inactive)
7 | CCN(CC)CC1CCCCN1CC(=O)N1c2ccccc2NC(=O)c2ccccc21 (centres undefined) | > 100 µM (inactive) | > 100 µM (inactive) | > 100 µM (inactive) | > 100 µM (inactive) | 79.3 µM (inactive) | > 100 µM (inactive) | > 100 µM (inactive) | > 100 µM (inactive) | > 100 µM (inactive) | > 100 µM (inactive) | > 100 µM (inactive) | > 100 µM (inactive) | > 100 µM (inactive) | > 100 µM (inactive) | > 100 µM (inactive) | > 100 µM (inactive) | > 100 µM (inactive) | > 100 µM (inactive) | > 100 µM (inactive)
8 | CCO[C@@]1(COCc2ccccc2)OC(=O)C[C@@H]1N1C(=O)OC[C@@H]1c1ccccc1 | > 100 µM (inactive) | > 100 µM (inactive) | > 100 µM (inactive) | 42.8 µM (inactive) | > 100 µM (inactive) | 32.5 µM (inactive) | > 100 µM (inactive) | > 100 µM (inactive) | > 100 µM (inactive) | 84.3 µM (inactive) | > 100 µM (inactive) | > 100 µM (inactive) | > 100 µM (inactive) | > 100 µM (inactive) | > 100 µM (inactive) | > 100 µM (inactive) | > 100 µM (inactive) | > 100 µM (inactive) | > 100 µM (inactive)
9 | O=C1c2cc([N+](=O)[O-])sc2C(=O)c2c([N+](=O)[O-])csc21 | 0.483 µM (active) | 1.9 µM (inactive) | 1.7 µM (inactive) | 0.0382 µM (active) | 0.116 µM (active) | 1.24 µM (inactive) | 0.365 µM (active) | 0.189 µM (active) | 1.52 µM (inactive) | 0.6 µM (active) | 0.64 µM (active) | 1.33 µM (inactive) | 0.708 µM (active) | 0.968 µM (active) | 0.713 µM (active) | 1.68 µM (inactive) | 1.63 µM (inactive) | 0.69 µM (active) | 0.378 µM (active)
10 | O=C1CCc2c(sc3ncnc(Nc4cccc(Br)c4)c23)C1 | 4.43 µM (inactive) | 3.11 µM (inactive) | 3.42 µM (inactive) | 4.32 µM (inactive) | 2.75 µM (inactive) | 3.6 µM (inactive) | 3.93 µM (inactive) | 2.65 µM (inactive) | 4.06 µM (inactive) | 2.1 µM (inactive) | 2.52 µM (inactive) | 3.07 µM (inactive) | 3.92 µM (inactive) | 3.88 µM (inactive) | 24.2 µM (inactive) | 7.52 µM (inactive) | 4.12 µM (inactive) | 2.4 µM (inactive) | 3.72 µM (inactive)
11 | N/C(=N\N/C=C1\C=Nc2cc(C(F)(F)F)ccc2C1=O)NO | > 10 µM (inactive) | > 10 µM (inactive) | > 10 µM (inactive) | > 10 µM (inactive) | 7.67 µM (inactive) | 0.001 µM (active) | > 10 µM (inactive) | > 10 µM (inactive) | > 10 µM (inactive) | > 10 µM (inactive) | > 10 µM (inactive) | > 10 µM (inactive) | > 10 µM (inactive) | > 10 µM (inactive) | > 10 µM (inactive) | > 10 µM (inactive) | > 10 µM (inactive) | > 10 µM (inactive) | > 10 µM (inactive)
